Data: BindingDB's records for patent US12071420 (Hoffmann-La Roche, 2024)

Molecular target: Cannabinoid receptor 2 (Homo sapiens, UniProt P34972)
Assay: Radioligand Binding Assay
Method: The affinity of the compounds of the invention for cannabinoid CB1 receptors was determined using recommended amounts of membrane preparations (PerkinElmer) of human embryonic kidney (HEK) cells expressing the human CNR1 or CNR2 receptors in conjunction with 1.5 or 2.6 nM [3H]-CP-55,940 (Perkin Elmer) as radioligand, respectively. Binding was performed in binding buffer (50 mM Tris, 5 mM MgCl2, 2.5 mM EDTA, and 0.5% (wt/vol) fatty acid free BSA, pH 7.4 for CB1 receptor and 50 mM Tris, 5 mM MgCl2, 2.5 mM EGTA, and 0.1% (wt/vol) fatty acid free BSA, pH 7.4 for CB2 receptor) in a total volume of 0.2 ml for 1 h at 30° C. shaking. The reaction was terminated by rapid filtration through microfiltration plates coated with 0.5% polyethylenimine (UniFilter GF/B filter plate; Packard). Bound radioactivity was analyzed for Ki using nonlinear regression analysis (Activity Base, ID Business Solution, Limited), with the Kd values for [3H]CP55,940 determined from saturation experiments. The compounds of formula (I) show an excellent affinity for the CB2 receptor.

Chain of Cannabinoid receptor 2 (P34972 whole entry): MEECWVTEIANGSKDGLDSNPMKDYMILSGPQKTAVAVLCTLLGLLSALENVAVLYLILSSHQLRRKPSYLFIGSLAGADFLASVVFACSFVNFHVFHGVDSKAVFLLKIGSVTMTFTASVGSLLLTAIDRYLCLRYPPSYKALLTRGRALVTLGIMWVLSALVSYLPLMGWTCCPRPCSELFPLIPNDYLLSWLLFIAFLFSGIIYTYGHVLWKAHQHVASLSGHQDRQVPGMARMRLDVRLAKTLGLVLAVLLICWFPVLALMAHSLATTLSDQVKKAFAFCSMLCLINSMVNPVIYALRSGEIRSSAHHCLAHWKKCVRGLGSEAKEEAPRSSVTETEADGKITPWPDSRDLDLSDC

Question: Which Ki does the source give for COC1CN(c2ccc(C(=O)N[C@H](COCF)CC(C)C)nc2OCC2CC2)C1 [US12071420, Example 25] here?
Answer: 0.014 µM
